Laboratory results taken from the supplement of paper PMC10307832.

Assays:
Experiment in all cases: relative viability (nuclei count vs DMSO), 5 days (fraction); higher = more cells survive
[1] = compound: CNC(=O)c1ccccc1Sc1ccc2c(/C=C/c3ccccn3)n[nH]c2c1 [Axitinib] + Nc1ncn([C@H]2C[C@H](O)[C@@H](CO)O2)c(=O)n1 [Decitabine] (partner 2 µM)
Outline: (§1)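 Relative viability was taken as the ratio of nuclei in treated wells to nuclei in vehicle wells. Lung cancer cell lines in 1536-well plates received compounds by pin tool one day after seeding, either one drug alone or a fixed anchor-drug dose plus five library-drug doses (not always all listed) in √10 steps. Nuclei were counted on 4× images after 5 days of treatment, and values are medians of duplicate plates.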

[2] = compound: CNC(=O)c1ccccc1Sc1ccc2c(/C=C/c3ccccn3)n[nH]c2c1 [Axitinib] + C[C@@H](Oc1cc(-c2cnn(C3CCNCC3)c2)cnc1N)c1c(Cl)ccc(F)c1Cl [Crizotinib] (partner 1 µM)
Outline: as §1

[3] = compound: CNC(=O)c1ccccc1Sc1ccc2c(/C=C/c3ccccn3)n[nH]c2c1 [Axitinib] + O=C(CCCCCCC(=O)Nc1ccccc1)NO [Vorinostat] (partner 1 µM)
Outline: as §1

[4] = compound: Nc1nc(Nc2ccc3c(c2)CC[C@@H](N2CCCC2)CC3)nn1-c1cc2c(nn1)-c1ccccc1CCC2 [Bemcentinib] + O=C(CCCCCCC(=O)Nc1ccccc1)NO [Vorinostat] (partner 1 µM)
Outline: as §1

Cell Line	relative viability ([1]; first compound 0.005 µM)	relative viability ([1]; first compound 0.01581 µM)	relative viability ([1]; first compound 0.05 µM)	relative viability ([1]; first compound 0.1581 µM)	relative viability ([1]; first compound 0.5 µM)	relative viability ([2]; first compound 0.005 µM)	relative viability ([2]; first compound 0.01581 µM)	relative viability ([2]; first compound 0.05 µM)	relative viability ([2]; first compound 0.1581 µM)	relative viability ([2]; first compound 0.5 µM)	relative viability ([3]; first compound 0.005 µM)	relative viability ([3]; first compound 0.01581 µM)	relative viability ([3]; first compound 0.05 µM)	relative viability ([3]; first compound 0.1581 µM)	relative viability ([3]; first compound 0.5 µM)	relative viability ([4]; first compound 0.04 µM)	relative viability ([4]; first compound 0.1265 µM)	relative viability ([4]; first compound 0.4 µM)	relative viability ([4]; first compound 1.265 µM)	relative viability ([4]; first compound 4 µM)
HOP-62	0.212	0.247	0.202	0.19	0.276	0.941	1.1	0.93	0.981	0.929	0.713	0.686	0.585	0.696	0.76	0.606	0.738	0.79	0.672	0.623
Calu-6						0.82	0.795	0.783	0.865	0.961										
NCI-H2023	0.209	0.243	0.238	0.219	0.226	0.699	0.786	0.651	0.73	0.684	0.545	0.604	0.607	0.557	0.796	0.77	0.783	0.619	0.748	0.66
NCI-H441	0.233	0.217	0.253	0.21	0.27	0.69	0.797	0.654	0.794	0.853	0.78	0.659	0.855	0.627	0.911	0.691	0.824	0.735	0.87	0.756
NCI-H2347	0.699	0.543	0.585	0.578	0.686	0.644	1.04	0.739	0.743	0.85	0.638	0.55	0.513	0.664	0.619	0.544	0.596	0.718	0.67	0.575
